In patent US9029337B2, “Modulation of factor 7 expression” (Isis Pharmaceuticals, Inc., priority 2007, dated 2015):
Strand notation (5' to 3'): a small letter for the sugar, then the base; units joined by * are phosphorothioate-linked, units joined directly phosphodiester-linked; [ ] holds rarer units or linkages, { } end groups; capitals alone tell only the bases. e = 2'-O-(2-methoxyethyl) (MOE); [5mC] = 5-methylcytosine; d = 2'-deoxy (DNA)

The substances below were run on human Factor 7 mRNA (assay: Antisense inhibition of human Factor 7 mRNA in HepB3 cells, 50 nM antisense oligonucleotide, lipofectin). Settings: Table 1, 50 nM, lipofectin, approximately 24 hours, relative to untreated control cells.
Assay type: cell-based
Outline: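 Readout is percent reduction of Factor 7 message compared with untreated cells, after correction for total RNA content quantified by RIBOGREEN®. Cultures were seeded at 4,000 cells per well and treated for about 24 hours before RNA extraction.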

Question: For “407610 (antisense eA*eG*eG*eG*eA*dG*dG*d[5mC]*dA*dG*dA*dA*dG*d[5mC]*dA*eG*eA*eT*eA*eT) [compound 407610]”, which “% Inhibition” value is on record?
Answer: 31%

Question: “407925 (antisense eG*eA*eA*eT*eA*dT*dA*dT*dG*dG*dG*dA*dT*dT*dT*eG*eG*eT*eG*e[5mC]) [compound 407925]” was tested. Which “% Inhibition” value did it give?
Answer: 64%

Question: “407933 (antisense eT*eG*eA*eT*eA*dA*dT*dG*dG*dA*dT*dA*dA*dG*dA*eA*e[5mC]*e[5mC]*eA*eG) [compound 407933]” was tested. Which “% Inhibition” value did it give?
Answer: 58%

Question: “407938 (antisense e[5mC]*eA*e[5mC]*e[5mC]*e[5mC]*dA*dG*d[5mC]*dG*dA*dA*dG*dG*dG*dA*eG*eA*eA*eA*eT) [compound 407938]” was tested. Which “% Inhibition” value did it give?
Answer: 60%

Question: Which “% Inhibition” value does the source give for “407620 (antisense eA*eG*eG*eA*e[5mC]*d[5mC]*dT*dG*d[5mC]*d[5mC]*dA*dT*dG*dG*dA*e[5mC]*eA*e[5mC]*eT*e[5mC]) [compound 407620]” here?
Answer: 79%

Question: How did the “% Inhibition” value turn out when “407915 (antisense eG*eT*eT*eG*e[5mC]*dG*d[5mC]*dA*dG*d[5mC]*d[5mC]*d[5mC]*dT*dG*dG*e[5mC]*e[5mC]*e[5mC]*e[5mC]*eA) [compound 407915]” was run?
Answer: 83%

Question: Which “% Inhibition” value does the source give for “407634 (antisense eG*eT*eG*eA*e[5mC]*dT*dG*d[5mC]*dT*dG*d[5mC]*dA*dG*dG*d[5mC]*eA*eG*eT*e[5mC]*e[5mC]) [compound 407634]” here?
Answer: 24%

Question: How did the “% Inhibition” value turn out when “407617 (antisense eT*e[5mC]*e[5mC]*eA*e[5mC]*dA*dT*dG*dG*dA*dT*dA*dT*dT*d[5mC]*eA*eA*e[5mC]*eT*eG) [compound 407617]” was run?
Answer: 67%

Same assay, conditions: Table 6, 50 nM, lipofectin, approximately 24 hours

Question: For “422266 (antisense e[5mC]*eG*d[5mC]*dG*dG*dA*dA*dG*dA*dA*dG*dG*dG*dA*d[5mC]*eG*eG*eA*eA*eG) [compound 422266]”, which “% Inhibition” value is on record?
Answer: 13%

Question: For “422128 (antisense eT*eT*eA*e[5mC]*eT*dG*dA*dG*d[5mC]*dG*d[5mC]*dG*dG*dA*dA*eG*eA*eA*eG*eG) [compound 422128]”, which “% Inhibition” value is on record?
Answer: 27%

Same assay, conditions: Table 13 (microwalk), 50 nM, lipofectin, approximately 24 hours

Question: “422226 (antisense e[5mC]*eA*dT*dG*dG*dT*dG*dA*dT*dG*d[5mC]*dT*dT*d[5mC]*dT*eG*eA*eA*eT*eT) [compound 422226]” was tested. Which “% Inhibition” value did it give?
Answer: 41%

Question: With “422230 (antisense e[5mC]*eA*dT*dG*d[5mC]*dA*dT*dG*dG*dT*dG*dA*dT*dG*d[5mC]*eT*eT*e[5mC]*eT*eG) [compound 422230]” as the substance, how does the “% Inhibition” value read?
Answer: 65%

Question: With “422151 (antisense eT*eG*e[5mC]*dA*dT*dG*dG*dT*dG*dA*dT*dG*d[5mC]*dT*dT*d[5mC]*dT*eG*eA*eA) [compound 422151]” as the substance, how does the “% Inhibition” value read?
Answer: 68%

Same assay, conditions: gapmers targeted to nucleobases 4868 to 4899 of SEQ ID NO: 1, Table 8

Question: How did the “% Inhibition of human Factor 7 mRNA levels” value turn out when “422147 (antisense eG*eA*eG*e[5mC]*e[5mC]*d[5mC]*dG*dA*dG*dT*dT*d[5mC]*dT*dG*d[5mC]*eA*eG*eG*eA*eG) [compound 422147]” was run?
Answer: 64%

Question: How did the “% Inhibition of human Factor 7 mRNA levels” value turn out when “422145 (antisense eG*e[5mC]*e[5mC]*e[5mC]*eG*dA*dG*dT*dT*d[5mC]*dT*dG*d[5mC]*dA*dG*eG*eA*eG*e[5mC]*eG) [compound 422145]” was run?
Answer: 57%

Question: “422297 (antisense e[5mC]*e[5mC]*d[5mC]*dG*dA*dG*dT*dT*d[5mC]*dT*dG*d[5mC]*dA*dG*dG*eA*eG*e[5mC]*eG*eG) [compound 422297]” was tested. Which “% Inhibition of human Factor 7 mRNA levels” value did it give?
Answer: 63%

Same assay, conditions: lipofectin, 50 nM antisense oligonucleotide, approximately 24 hours, Factor 7 mRNA by real-time RT-PCR (RTS 2927), relative to untreated control

Question: “416426 (antisense eA*eG*e[5mC]*e[5mC]*e[5mC]*dA*dA*dG*d[5mC]*dA*dG*dA*dA*dG*dG*e[5mC]*eA*eG*eA*eG) [compound 416426]” was tested. Which “% Inhibition” value did it give?
Answer: 34%

Question: Which “% Inhibition” value does the source give for “416440 (antisense eG*eG*eA*e[5mC]*eT*dG*dG*dA*dG*d[5mC]*dT*dG*dG*dT*d[5mC]*e[5mC]*eT*eT*eG*e[5mC]) [compound 416440]” here?
Answer: 44%

Question: “416439 (antisense eG*eT*e[5mC]*e[5mC]*eT*dT*dG*d[5mC]*dA*dG*dG*dA*dG*d[5mC]*d[5mC]*e[5mC]*e[5mC]*e[5mC]*eA*eT) [compound 416439]” was tested. Which “% Inhibition” value did it give?
Answer: 56%

Question: “416530 (antisense eA*eG*eG*eG*eT*dA*dG*d[5mC]*d[5mC]*dT*dT*dT*dG*d[5mC]*d[5mC]*eT*eT*eG*eG*e[5mC]) [compound 416530]” was tested. Which “% Inhibition” value did it give?
Answer: 35%

Question: “416457 (antisense eG*eG*eA*eT*eG*dA*dT*dG*dA*d[5mC]*d[5mC]*dT*dG*d[5mC]*dG*e[5mC]*e[5mC]*eA*e[5mC]*e[5mC]) [compound 416457]” was tested. Which “% Inhibition” value did it give?
Answer: 48%

Same assay, conditions: oligonucleotides targeted to nucleobases 11830 to 11869 of SEQ ID NO: 1 (Table 9)

Question: Which “% Inhibition (human Factor 7 mRNA levels)” value does the source give for “422163 (antisense eA*eG*eA*d[5mC]*dA*dA*dT*dG*dG*dT*d[5mC]*dA*dG*dG*dG*d[5mC]*dT*eG*eG*eT) [compound 422163]” here?
Answer: 56%

Question: With “422245 (antisense eT*eG*dA*dG*dG*dA*dG*dA*d[5mC]*dA*dA*dT*dG*dG*dT*e[5mC]*eA*eG*eG*eG) [compound 422245]” as the substance, how does the “% Inhibition (human Factor 7 mRNA levels)” value read?
Answer: 24%

Question: For “422094 (antisense e[5mC]*eA*eA*eT*eG*dG*dT*d[5mC]*dA*dG*dG*dG*d[5mC]*dT*dG*eG*eT*eT*eT*eT) [compound 422094]”, which “% Inhibition (human Factor 7 mRNA levels)” value is on record?
Answer: 48%

Question: “422231 (antisense eT*e[5mC]*dA*dG*dG*dG*d[5mC]*dT*dG*dG*dT*dT*dT*dT*dG*eG*eA*eG*eG*eA) [compound 422231]” was tested. Which “% Inhibition (human Factor 7 mRNA levels)” value did it give?
Answer: 22%

Question: “422242 (antisense eG*eG*dA*dG*dA*d[5mC]*dA*dA*dT*dG*dG*dT*d[5mC]*dA*dG*eG*eG*e[5mC]*eT*eG) [compound 422242]” was tested. Which “% Inhibition (human Factor 7 mRNA levels)” value did it give?
Answer: 64%

Question: For “422102 (antisense e[5mC]*eT*eG*eA*eG*dG*dA*dG*dA*d[5mC]*dA*dA*dT*dG*dG*eT*e[5mC]*eA*eG*eG) [compound 422102]”, which “% Inhibition (human Factor 7 mRNA levels)” value is on record?
Answer: 62%

Question: For “422172 (antisense eT*eG*eG*d[5mC]*dT*dG*dA*dG*dG*dA*dG*dA*d[5mC]*dA*dA*dT*dG*eG*eT*e[5mC]) [compound 422172]”, which “% Inhibition (human Factor 7 mRNA levels)” value is on record?
Answer: 39%

Same assay, conditions: oligonucleotides targeted to nucleobases 13760 to 13789 of SEQ ID NO: 1 (Table 10)

Question: With “422262 (antisense e[5mC]*eT*dG*d[5mC]*dG*d[5mC]*d[5mC]*dA*d[5mC]*d[5mC]*d[5mC]*dG*d[5mC]*d[5mC]*dG*eG*e[5mC]*eT*e[5mC]*eT) [compound 422262]” as the substance, how does the “% Inhibition (human Factor 7 mRNA levels)” value read?
Answer: 0%

Question: How did the “% Inhibition (human Factor 7 mRNA levels)” value turn out when “422114 (antisense e[5mC]*eG*e[5mC]*e[5mC]*eA*d[5mC]*d[5mC]*d[5mC]*dG*d[5mC]*d[5mC]*dG*dG*d[5mC]*dT*e[5mC]*eT*eG*e[5mC]*eT) [compound 422114]” was run?
Answer: 50%

Question: With “422258 (antisense eG*e[5mC]*d[5mC]*dA*d[5mC]*d[5mC]*d[5mC]*dG*d[5mC]*d[5mC]*dG*dG*d[5mC]*dT*d[5mC]*eT*eG*e[5mC]*eT*e[5mC]) [compound 422258]” as the substance, how does the “% Inhibition (human Factor 7 mRNA levels)” value read?
Answer: 66%

Question: Which “% Inhibition (human Factor 7 mRNA levels)” value does the source give for “422175 (antisense e[5mC]*eG*e[5mC]*d[5mC]*dG*dG*d[5mC]*dT*d[5mC]*dT*dG*d[5mC]*dT*d[5mC]*dA*dT*d[5mC]*e[5mC]*e[5mC]*e[5mC]) [compound 422175]” here?
Answer: 69%

Same assay, conditions: oligonucleotides targeted to nucleobases 14707 to 14732 of SEQ ID NO: 1 (Table 11)

Question: How did the “% Inhibition (human Factor 7 mRNA levels)” value turn out when “422202 (antisense eA*eG*e[5mC]*d[5mC]*dT*dG*dA*dG*dG*d[5mC]*d[5mC]*dA*dG*d[5mC]*dA*dG*dA*eT*e[5mC]*eA) [compound 422202]” was run?
Answer: 49%

Question: With “422280 (antisense e[5mC]*eA*dG*d[5mC]*d[5mC]*dT*dG*dA*dG*dG*d[5mC]*d[5mC]*dA*dG*d[5mC]*eA*eG*eA*eT*e[5mC]) [compound 422280]” as the substance, how does the “% Inhibition (human Factor 7 mRNA levels)” value read?
Answer: 52%

Same assay, conditions: oligonucleotides targeted to nucleobases 15098 to 15122 of SEQ ID NO: 1 (Table 12)

Question: With “422135 (antisense eA*eG*e[5mC]*eA*e[5mC]*dA*d[5mC]*dA*dT*dG*dG*dA*dG*dT*d[5mC]*eA*eG*e[5mC]*eA*eT) [compound 422135]” as the substance, how does the “% Inhibition (human Factor 7 mRNA levels)” value read?
Answer: 53%
